Laboratory results published in patent US8957087B2, “Heterocyclic substituted acardite derivate and application thereof” (Jiangsu Provincial Institute of Materia Medica Co., Ltd., priority 2009, dated 2015).
Like-named read-outs stand apart in the source and are kept apart here. Marks after values point to notes of the source that are not given here.

Columns and labels:
Raf-1(truncated) = experiment: Raf-1 inhibitor screening by chemoluminescence method; format: biochemical; details: Final concentration 1 x 1.0*10^−5 mol/ml
Excerpt: 1. Inhibitory activity of the compound of the present invention on raf kinase
Raf-1 inhibitor screening by chemoluminescence method
Westernblot electrophoresis apparatus Rotaryshaker
Raf-1(truncated), Magnesium/ATP Cocktail, MEK1 unactive

[1] = tested on: human lung cancer cell strain A549; experiment: MTT assay, inhibition of growth of human lung cancer cell strain A549; format: cell-based
Protocol: 4. Using 3-(4,5-dimethylthiazol-2-yl)-2,5-diphenyl tetrazolium bromide assay (MTT) to detect the inhibition effects on the growth of human lung cancer cell strain A549
[Test materials] MTT working solution, F12 medium containing 10% FBS, continuous injectors
(§1) [Tested compound] Compounds 1-38
(§2) [Positive control medicine] Sorafenib, compounds A′, B′, C′ with no substituent or only amino formyl in A ring
The inhibition rate is calculated as follows:
(§3) Relative OD value of conrol well=OD value of control well−OD value of blank well
(§4) Relative OD value of drug well=OD value of drug well−OD value of blank well

[2] = tested on: human high-metastic lung cancer cell 95D; experiment: Inhibition of human high-metastic lung cancer cell 95D migration (Boyden Chamber Transwell); format: cell-based; details: Final concentration 1 x 1.0*10^(−5) mol/L
Protocol: 5 Inhibition effects of compounds on human high-metastic lung cancer cell 95D migration
[Test materials] Boyden Chamber Transwell chamber (with pore size of 8 μm), human high-metastic lung cancer cell 95D cell strain, 1640 medium containing 10% FBS, 1640 medium containing no serum
as §1, §2
(§5) The inhibition rate is calculated as follows: […]

lung cancer cell A549 = experiment: Effects on the adhesive ability of lung cancer cell A549; format: cell-based, human; details: Final concentration 1 x 1.0*10^(−5) mol/L
Protocol: 6. Effects of tested compounds on the adhesive ability of lung cancer cell A549
[Test materials] gelatin, CCK8, poly-lysine (PLL), A549 cell stains, 1640 medium containing 10% FBS
(§6) [Tested compound] Compounds 1-38 to be tested
as §2, §5
Dosing dosing cells without cell group (gelatin adhesive OD/PLL adhesion OD)−Dosing cell group (gelatin adhesive OD/PLL adhesion OD value)
Dosing dosing cells without cell group (gelatin adhesive OD/PLL adhesion OD value)

[3] = tested on: human umbilical vein endothelial cell HUVEC; experiment: Growth of human umbilical vein endothelial cell HUVEC by CCK8 method; format: cell-based; details: Final concentration 1 x 1.0*10^(−5) mol/L
Excerpt: 7. Effects of tested compounds on the growth of human umbilical vein endothelial cell HUVEC cell by CCK8 method
[Test materials] CCK8, human umbilical vein endothelial cell HUVEC cell, 1640 medium containing 10% FBS
as §6, §2, §3, §4

[4] = tested on: human umbilical vein endothelial cell HUVEC; experiment: Lumen formation ability of HUVEC (Matrigel method); format: cell-based; details: Final concentration 1 x 1.0*10^(−5) mol/L
Excerpt: 8. Inhibition effects of compounds on the lumen formation ability of human umbilical vein endothelial cell HUVEC
[Experimental principles] The human umbilical vein endothelial cells have ability of spontaneously forming blood lumen on Matrigel, which can be used to simulate the process of angiogenesis in vivo. We used Matrigel method to investigate the effects of the compound on the lumen formation ability of human umbilical vein endothelial cell HUVEC.
[Test materials] HUVEC (taking generation 3 to 5 cells for experiments after obtained from primary separation and cultured at 37 under the conditions of 5% CO2), Matrigel, cell culture medium M199.
as §1, §2, §5

[5] = tested on: human lung cancer A549 transplantation tumor; format: in vivo; details: BALB/cA nude mice; 60 mg/kg, 6 times every week for 3 weeks; Sorafenib oral 60 mg/kg
Protocol: 9. Tumor inhibition rate of tested compounds on human lung cancer A549 cell transplantation model in nude mice
(§7) [Test animals] female BALB/cA nude mice, 35-40 days old, with weight of 18-22g. There were 12 mice in the negative conrol group and 6 mice in the treatment group.
(§8) The dosage of the compound was 60 mg/kg, 6 times every week for 3 weeks. […] Equal amount of normal saline was administrated in the negative control group. Observe for one week after administration.

[6] = tested on: human liver cancer cell bel-7402 transplantation tumor; format: in vivo; details: BALB/cA nude mice; 60 mg/kg, 6 times every week for 3 weeks; Sorafenib oral 60 mg/kg
Protocol: 10. Tumor inhibition rate of tested compounds on human liver cancer cell bel-7402 transplantation tumor model in nude mice
as §7, §8

[7] = tested on: renal carcinoma cell line GCR-1 transplanted tumor; format: in vivo, BALB/cA nude mice; details: BALB/cA nude mice; 60 mg/kg, 6 times every week for 3 weeks; Sorafenib oral 60 mg/kg
Protocol: 11. Tumor inhibition rate of medicines on renal carcinoma cell line GCR-1 transplanted tumor model in nude mice
as §7
[Test method] […] The dosage of the medicine was 60 mg/kg, 6 times every week for 3 weeks. […] Equal amount of normal saline was administrated in the negative control group. Observe for one week after administration.

mice S180 sarcoma = experiment: Experimental therapeutic action on S180 sarcoma mice; details: for Tumor growth inhibition rate (%): mice S180 sarcoma, 60 mg/kg orally for 9 days
[8] = tested on: Human colon cancer HT-29 transplantable tumor; experiment: Human colon cancer HT-29 transplantable tumor in nude mice; details: for Relative tumor reproduction rate T/C (%): HT-29 in nude mice

Row | Compound | Inhibition rate % on raf kinase (Raf-1(truncated)) | Inhibition rate, growth of human lung cancer cell A549 [1] | Inhibition rate, 95D cell strain migration [2] | Inhibition rate, adhesion ability of human lung cancer cell A549 (lung cancer cell A549) | Inhibition rate, growth of HUVEC cell [3] | Inhibition rate, lumen formation ability of HUVEC [4] | Relative tumor reproduction rate T/C (%) on human lung cancer A549 transplantation tumor in nude mice [5] | Relative tumor reproduction rate T/C (%) on human liver cancer cell bel-7402 transplantation tumor model in nude mice [6] | Relative tumor reproduction rate T/C (%) on human renal carcinoma GCR-1 cell transplanted tumor model in nude mice [7] | Tumor growth inhibition rate (%) (mice S180 sarcoma) | Relative tumor reproduction rate T/C (%) ([8]; 60 mg/kg ig 9 times) | other results
1 | N-(4-fluoro-3-(trifluoromethyl)phenyl)-N′-(4-(4-(2-methyl-pyrryl)oxy)phenyl)urea [Compound 29] | 85.3% | 86.42% | 61.44% | 91.40% | 21.40% | 86.43% | 14.7% | 16.2% | 12.8% | 14.2% | 78.3% | 
2 | Nc1ccc2c(Oc3ccc(NC(=O)Nc4ccc(Cl)c(C(F)(F)F)c4)cc3)cncc2c1 [Compound 25, N-(4-chloro-3-(trifluoromethyl)phenyl)-N′-(4-(4-(7-amino-isoquinolyl)oxy)phenyl)urea] | 11.5% | 63.26% | 59.76% | 63.51% | 23.26% | 79.79% | 39.4% | 29.1% | 31.2% | 55.8% | 79.5% | 
3 | COc1ncncc1Oc1ccc(NC(=O)Nc2ccc(F)c(C(F)(F)F)c2)cc1 [Compound 23, N-(4-fluoro-3-(trifluoromethyl)phenyl)-N′-(4-(5-(4-methoxypyrimidinyl)oxy)phenyl)urea] | 89.9% | 55.41% | 85.53% | 77.56% | 17.41% | 97.56% | 17.1% | 17.7% | 9.1% | 51.5% | 39.7% | 
4 | CCc1cc(NC(=O)Nc2ccc(Oc3ccnc4cc(F)c(C)cc34)cc2)ccc1Cl [Compound 33, N-(4-chloro-3-ethylphenyl)-N′-(4-(4-(6-methyl-7-fluoro-quinolinyl)oxy)phenyl)urea] | 92.3% | 57.53% | 77.52% | 77.59% | 17.50% | 67.51% | 37.5% | 32.7% | 33.4% | 55.3% | 39.9% | 
5 | N-(4-chloro-3-(trifluoromethyl)phenyl)-N′-(4-(2-(N-methylaminoformoxyl)-4-(6-methoxyquinolinyl)oxy))phenyl)urea [Compound 1] | 75.0% |  | 80.21% | 60.22% | 9.20% | 72.22% | 38.7% | 33.7% | 30.5% | 38.5% |  | Inhibition rate, growth of human lung cancer cell A549 ([1]; Final concentration 1 x 1.0*10^(−5) mol/L): 50.20%; Tumor weight x ± SD (mice S180 sarcoma; 60 mg/kg ig for 9 days, day 10): 0.99 ± 0.20 g; Weight (g) Start (mice S180 sarcoma; mouse body weight at start, 60 mg/kg ig): 18.7 ± 1.9 g; Weight (g) Final (mice S180 sarcoma; mouse body weight final, 60 mg/kg ig for 9 days): 22.3 ± 1.3 g; Relative tumor reproduction rate T/C (%) ([8]; 60 mg/kg ig 9 times, 60 mg/kg): 55.42%; Weight (g) d0 ([8]; nude mouse body weight d0, 60 mg/kg): 19.5 ± 1.0 g; Weight (g) d13 ([8]; nude mouse body weight d13, 60 mg/kg ig 9 times): 20.5 ± 1.1 g; RTV ([8]; relative tumor volume, 60 mg/kg ig 9 times): 2.81 ± 1.05; TV d0 ([8]; tumor volume d0, 60 mg/kg): 128 ± 34; TV d13 ([8]; tumor volume d13, 60 mg/kg ig 9 times): 359 ± 108
6 | Nc1ccc2c(Oc3ccc(NC(=O)Nc4ccc(F)c(C(F)(F)F)c4)cc3)cncc2c1 [Compound 26, N-(4-fluoro-3-(trifluoromethyl)phenyl)-N′-(4-(4-(7-amino-isoquinolyl)oxy)phenyl)urea] | 15.3% | 55.50% | 60.52% | 68.57% | 32.50% | 70.53% | 33.1% | 36.1% | 24.2% | 7.6% | 41.1% | 
